Values quoted from earlier work, collected in US8609138B2, “ω3 fatty acid compound preparation” (Mochida Pharmaceutical Co., Ltd., priority 2010, dated 2013).

What was measured:
[1] = pharmaceutical products; Non-Patent Literatures 2-4
[2] = pH 7.4; Non-Patent Literature 1

| SMILES | partition coefficient (octanol-water partition coefficient) [1] | log P7.4; water-octanol partition coefficient at a pH of 7.4 [2] |
| --- | --- | --- |
| CC[C@H](C)C(=O)O[C@H]1C[C@H](O)C=C2C=C[C@H](C)[C@H](CC[C@@H](O)C[C@@H](O)CC(=O)O)[C@H]21 [Pravastatin sodium] | −0.33 |  |
| CC[C@H](C)C(=O)O[C@H]1C[C@H](O)C=C2C=C[C@H](C)[C@H](CC[C@@H](O)C[C@@H](O)CC(=O)O)[C@H]21 [pravastatin] |  | −0.84 |
| CC(C)c1nc(N(C)S(C)(=O)=O)nc(-c2ccc(F)cc2)c1/C=C/[C@@H](O)C[C@@H](O)CC(=O)[O-].CC(C)c1nc(N(C)S(C)(=O)=O)nc(-c2ccc(F)cc2)c1/C=C/[C@@H](O)C[C@@H](O)CC(=O)[O-].[Ca+2] [rosuvastatin calcium] | −0.3±0.1 |  |
| CC(C)c1nc(N(C)S(C)(=O)=O)nc(-c2ccc(F)cc2)c1/C=C/[C@@H](O)C[C@@H](O)CC(=O)O [rosuvastatin] |  | ~-0.33 |
| CCC(C)(C)C(=O)O[C@H]1C[C@@H](C)C=C2C=C[C@H](C)[C@H](CC[C@@H]3C[C@@H](O)CC(=O)O3)[C@H]21 [simvastatin] |  | 1.60 |
